Among the data in patent US20260125378A2, “Heterocyclic Compounds” (BeOne Medicines I GmbH, priority 2023, published 2026) are IC50 values, retold here.

Molecules are shown by their SMILES.

Experiment [1] concerns the target T1, Full length DGKα (D21-10BG, SignalChem) (Homo sapiens, UniProt P23743).
T1 construct: Full length DGKα (D21-10BG, SignalChem); purchased SignalChem D21-10BG
In words: Biochemical DGK IC50 assay (ADP-Glo, lipid micelle substrate), DGKα. The settings on record: 1 hour preincubation, 1 hour reaction, room temperature. As for the experimental part: (§1) Enzymatic reactions of DGKζ, DGKα and DGKδ were performed using ADP-Glo assay with lipid micelle substrate. […] Full length DGKα (D21-10BG, SignalChem) and full length DGKδ (D23-10G, SignalChem) were purchased. Lipid micelle was prepared by dissolving DAG (Sigma, 317505-10 MG) and PS (Sigma, P7769-100 MG) with chloroform which was furtherly removed by rotary evaporation. The obtained residue was resuspended in buffer containing 25 mM HEPES pH 7.0, 0.5 mM EDTA and 160 mM Octyl β-D glucopyranoside by vigorous mixing and ultrasonic (IID, Scientz).
(§2) The inhibition activities testing for the compound disclosed herein were carried out at room temperature in assay buffer containing 50 mM HEPES, 10 mM MgCl2, 0.01% BSA, 0.1 mM Na3VO4, 0.005% Tween-20 and 0.01 mM CaCl2). Compounds in DMSO were dispensed into wells of a black 384 well plate (Corning 4514) using D300e digital dispenser (Tecan). […] 3 μL 2× enzyme solution was added to wells. […] After 1 hour reaction, 5 μL ADP-Glo reagent (Promga V9101) was added and incubated for 40 minutes. 10 μL Kinase Detection reagent was added and incubated for 30 minutes. Luminescence was measured on a microplate reader (PHERAstar FSX, BMG labtech). The IC50S are calculated based on inhibition of enzyme activity in the presence of increasing concentrations of compounds.
A general note: ADP-Glo first removes unused ATP, then detects ADP through luciferase.

The target in experiment [2] is T2, Full length DGKζ (in-house protein M1-V929) (Homo sapiens, UniProt Q13574).
T2 construct: His (N); TEV site (N); made in house; host or cells: Sf9 insect cells (Bac-to-Bac baculovirus)
T2 sequence (Q13574 1-929 isoform Q13574-4): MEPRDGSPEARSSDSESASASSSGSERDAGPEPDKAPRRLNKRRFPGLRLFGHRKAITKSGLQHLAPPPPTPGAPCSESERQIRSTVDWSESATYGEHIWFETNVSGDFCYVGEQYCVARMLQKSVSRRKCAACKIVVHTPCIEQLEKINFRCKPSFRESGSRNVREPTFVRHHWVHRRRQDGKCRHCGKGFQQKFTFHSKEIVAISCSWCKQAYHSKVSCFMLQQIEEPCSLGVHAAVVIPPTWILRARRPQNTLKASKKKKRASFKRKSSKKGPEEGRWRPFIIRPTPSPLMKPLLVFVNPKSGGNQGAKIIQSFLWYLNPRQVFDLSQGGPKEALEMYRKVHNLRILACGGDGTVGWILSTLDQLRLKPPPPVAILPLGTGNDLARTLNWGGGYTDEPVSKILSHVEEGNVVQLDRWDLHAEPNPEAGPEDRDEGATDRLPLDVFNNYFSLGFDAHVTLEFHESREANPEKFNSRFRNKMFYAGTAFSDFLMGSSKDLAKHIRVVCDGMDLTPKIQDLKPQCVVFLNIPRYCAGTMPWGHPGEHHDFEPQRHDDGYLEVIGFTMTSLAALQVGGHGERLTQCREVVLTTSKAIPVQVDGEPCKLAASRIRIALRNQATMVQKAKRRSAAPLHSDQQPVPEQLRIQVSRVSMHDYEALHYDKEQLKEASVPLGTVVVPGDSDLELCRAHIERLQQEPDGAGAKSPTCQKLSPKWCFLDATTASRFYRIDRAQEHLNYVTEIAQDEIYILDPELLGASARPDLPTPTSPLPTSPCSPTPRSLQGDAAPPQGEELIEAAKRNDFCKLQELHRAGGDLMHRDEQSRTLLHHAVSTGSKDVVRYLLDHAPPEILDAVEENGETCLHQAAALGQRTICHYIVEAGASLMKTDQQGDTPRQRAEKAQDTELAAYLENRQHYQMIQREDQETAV
In words: Biochemical DGK IC50 assay (ADP-Glo, lipid micelle substrate), DGKζ. The settings on record: 1 hour preincubation, 1 hour reaction, room temperature. On the procedure:
as §1, §2
Human His-TEV-DGK-zeta-pFastBac1 and human baculovirus samples was generated using the Bac- to -Bac baculovirus expression system (Invitrogen) according to the manufacturer's protocol. The DNA used for expression of DGK-zeta, have SEQ ID Nos: 1. Baculovirus amplification was achieved using infected SF9 cells at 1:2000 virus/cells ratios, and grown for 96 hours at 27° C. post-transfected.
The expression scaled up for each protein was carried out in the […] from CORNING. 4 L of 3×10^6 cells/mL Sf9 cells (Expression System, Invitrogen) grown in SF900™ II SFM insect medium (Expression System) was infected with virus stock at 1:200 virus/cells ratio, and grown for 48 hours at 27° C. post-transfection. The infected cell culture was harvested by centrifugation at 6000 rpm for 15 min 4° C. in a SORVALL LYNX6000 centrifuge. The cell pellets were stored at −80° C.
Full length human DGKζ produced as described above, was purified from Sf9 baculovirus-infected insect cell paste. The cells were lysed using sonication method, and the lysates were clarified by centrifugation.

T1 sequence (P23743 whole entry): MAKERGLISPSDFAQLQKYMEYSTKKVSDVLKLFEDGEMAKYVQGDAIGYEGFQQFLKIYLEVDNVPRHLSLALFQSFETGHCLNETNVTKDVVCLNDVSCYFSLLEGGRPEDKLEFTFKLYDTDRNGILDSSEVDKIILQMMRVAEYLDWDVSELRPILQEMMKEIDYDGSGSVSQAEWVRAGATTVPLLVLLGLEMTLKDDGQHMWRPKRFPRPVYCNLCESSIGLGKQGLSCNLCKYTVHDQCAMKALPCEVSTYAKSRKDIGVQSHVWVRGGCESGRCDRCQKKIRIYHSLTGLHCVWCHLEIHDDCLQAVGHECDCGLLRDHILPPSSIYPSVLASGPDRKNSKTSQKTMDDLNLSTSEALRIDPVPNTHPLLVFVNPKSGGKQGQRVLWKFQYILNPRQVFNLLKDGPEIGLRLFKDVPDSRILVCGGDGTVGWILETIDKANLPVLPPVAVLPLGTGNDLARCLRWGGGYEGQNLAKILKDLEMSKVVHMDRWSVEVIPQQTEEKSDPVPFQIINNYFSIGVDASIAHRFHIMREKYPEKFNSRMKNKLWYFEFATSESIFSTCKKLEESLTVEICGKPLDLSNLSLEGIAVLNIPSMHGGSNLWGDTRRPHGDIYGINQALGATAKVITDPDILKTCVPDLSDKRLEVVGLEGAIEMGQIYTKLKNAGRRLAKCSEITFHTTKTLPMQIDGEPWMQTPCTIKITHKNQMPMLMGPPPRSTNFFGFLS

For orientation: IC50 means the concentration needed to halve the response being measured. A lower IC50 goes with greater potency in that assay. Regarding `CCn1c(CC#N)nc2c(N3C[C@@H](C)N(C(C)c4ccc5c(c4)C(=O)N(C)CO5)C[C@@H]3C)nc(=O)n(C)c21` (stereo partly drawn) [Compound A192, 2-(6-((2S,5R)-2,5-dimethyl-4-(1-(3-methyl-4-oxo-3,4-dihydro-2H-benzo[e][1,3]oxazin-6-yl)ethyl)piperazin-1-yl)-9-ethyl-3-methyl-2-oxo-3,9-dihydro-2H-purin-8-yl)acetonitrile], the IC50 in experiment [1] was greater than 150 µM; in experiment [2], 119 nM.

Regarding `CCn1c(CC#N)nc2c(N3C[C@@H](C)N(C(C)c4ccnc(-c5ccccc5)c4)C[C@@H]3C)nc(=O)n(C)c21` (stereo partly drawn) [Compound A144, 2-(6-((2S,5R)-2,5-dimethyl-4-(1-(2-phenylpyridin-4-yl)ethyl)piperazin-1-yl)-9-ethyl-3-methyl-2-oxo-3,9-dihydro-2H-purin-8-yl)acetonitrile], the IC50 in experiment [1] is 74.1 µM; in experiment [2], 60 nM.

As to `CC#CC(c1ccc(C)cc1)N1C[C@H](C)N(c2nc(=O)n(C)c3c2nc(CC#N)n3CC)C[C@H]1C` (stereo partly drawn) [Compound A145, 2-(6-((2S,5R)-2,5-dimethyl-4-(1-(p-tolyl)but-2-yn-1-yl)piperazin-1-yl)-9-ethyl-3-methyl-2-oxo-3,9-dihydro-2H-purin-8-yl)acetonitrile], the figures for the half-inhibitory concentration (IC50) in experiment [1] and in experiment [2] were 5.62 µM and 480 nM, respectively.

With `CC[C@@H]1CN(c2nc(=O)n(C)c3c2nc(CC#N)n3CC)[C@@H](C)CN1C(C)c1ccc2c(c1)OC(C)(C)CO2` (stereo partly drawn) [Compound A65, 2-(6-((2S,5R)-4-(1-(3,3-dimethyl-2,3-dihydrobenzo[b][1,4]dioxin-6-yl)ethyl)-5-ethyl-2-methylpiperazin-1-yl)-9-ethyl-3-methyl-2-oxo-3,9-dihydro-2H-purin-8-yl)acetonitrile], the IC50 in experiment [1] was determined as 24.2 µM; in experiment [2], 2.3 nM.

As to `CC(c1ccc2nccnc2c1)N1C[C@H](C)N(c2cc(=O)n(C)c3c2nc(CC#N)n3C)C[C@H]1C` (single isomer, unassigned) [Compound A1b], the IC50 in experiment [1] is greater than 10 µM; in experiment [2], 2350 nM.

With `CC(c1ccc2nccnc2c1)N1C[C@H](C)N(c2nc(=O)n(C)c3c2nc(CC#N)n3C)C[C@H]1C` (stereo partly drawn) [Compound A48, 2-(6-((2S,5R)-2,5-dimethyl-4-(1-(quinoxalin-6-yl)ethyl)piperazin-1-yl)-3,9-dimethyl-2-oxo-3,9-dihydro-2H-purin-8-yl)acetonitrile], the half-maximal inhibitory concentration (IC50) was determined as 44.6 µM in experiment [1] and 29 nM in experiment [2].

On to `CCn1c(CC#N)nc2c(N3C[C@@H](C)N(C(C)c4ccc5ccc(C)nc5c4)C[C@@H]3C)nc(=O)n(C)c21` (stereo partly drawn) [Compound A90, 2-(6-((2S,5R)-2,5-dimethyl-4-(1-(2-methylquinolin-7-yl)ethyl)piperazin-1-yl)-9-ethyl-3-methyl-2-oxo-3,9-dihydro-2H-purin-8-yl)acetonitrile], for which the IC50 is greater than 150 µM in experiment [1] and 213 nM in experiment [2].

In the case of `CCn1c(CC#N)nc2c(N3C[C@@H](C)N(C(C)c4ccc(C)cc4C(F)(F)F)C[C@@H]3C)nc(=O)n(C)c21` (single isomer, unassigned) [Compound A116a], the IC50 in experiment [1] is greater than 150 µM; in experiment [2] it was 7760 nM.

For `CC(c1ccc(F)cc1C(F)(F)F)N1C[C@H](C)N(c2nc(=O)n(C)c3c2nc(CC#N)n3C)C[C@H]1C` (single isomer, unassigned) [Compound A33a], the IC50 in experiment [1] is greater than 10 µM; in experiment [2], 804 nM.

On to `CCn1c(CC#N)nc2c(N3C[C@@H](C)N(C(C)c4nc5c(cc4F)OCC(C)(C)O5)C[C@@H]3C)nc(=O)n(C)c21` (single isomer, unassigned) [Compound A161a], for which the IC50 in experiment [1] was found to be 71.8 µM; in experiment [2], 24 nM.

For the molecule `CC(c1ccc(F)cc1C(F)(F)F)N1C[C@H](C)N(c2cc(=O)n(C)c3[nH]c(CC#N)nc23)C[C@H]1C` (single isomer, unassigned) [Compound A9a], the IC50 in experiment [1] is greater than 10 µM; in experiment [2] it was 8590 nM.

As for `CC(c1ccc(F)cc1C(F)(F)F)N1C[C@H](C)N(c2cc(=O)n(C)c3[nH]c(CC#N)nc23)C[C@H]1C` (single isomer, unassigned) [Compound A9b], the IC50 in experiment [1] was greater than 10 µM; in experiment [2] it was 169 nM.
